Measurements as given in patent publication US20040235801A1, “Therapy for stroke” (priority 2001, published 2004).

System: C57BL/6 mice
Assay: Size of infarction after 90 minutes MCA occlusion (tetrazolium red)
Format: in vivo, mouse
Details: 24 hours after 90 min MCAO; treatment 2.5 hours after MCAO, i.p.; % of contralateral side
Description: Adult (3-5 months old) male C57BL/6 mice were obtained from Charles River Inc. (Saint-Constant, Quebec, Canada). All experimental procedures were approved by the MUHC animal care committee according to the guidelines of the Canadian Council for Animal Care. All animals were allowed free access to water before and after surgery.
Unilateral focal cerebral ischemia was induced by occlusion of the medial cerebral artery (MCA) in the left cerebral hemisphere during 1.5 hours. The MCA occlusions in mice is carried out on ˜30 C57BI/6 mice weighing 20-25 g from an adaptation of a method previously described in rats (Beaulieu, J. M., Kriz, J. and Julien, J. P. ,2002, Brain.Res. 946, 153-161). The animals were anesthetized by administration of ketamine/xylazine mg/kg i.m. To avoid hypothermia, the mouse body temperature was maintained at 37° C. with an infrared heating lamp and warm pad. […]
The area of infarct was estimated in the minimum of animals (5-7 mice) from each experimental group. […] The area of infarct was estimated according to the tetrazolium red staining, calculated in arbitrary units pixels and expressed as a percentage of a total control area, the contralateral non-stroked side of the brain. […] The infarct volume was calculated by summing up the infarct area in multiple slices. […]

CN(C)c1ccc(O)c2c1C[C@H]1C[C@H]3[C@H](N(C)C)C(O)=C(C(N)=O)C(=O)[C@@]3(O)C(O)=C1C2=O [Minocycline, minocycline]
% of ischemic area: 38.4%
